The values below come from the supplement of paper PMC11061612.

Structures are written as SMILES.

What all share (assay): Bliss excess, mean over the matrix (fraction); higher = more synergy
The subject of assay [1] is ESO26 (Esophageal Adenocarcinoma). The method, boiled down: (§1)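 Bliss excess equals the observed combination effect minus the expected value EA + EB − EA·EB, where EA and EB are the effects of each agent alone. Combination Emax is the second-highest inhibition within the matrix. Inhibition was scaled from CellTiter-Glo 2.0 luminescence, with 0 set by vehicle wells and 1 by blank wells, after 72 hours of two-drug dosing of cells plated in 1536-well plates.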

A further assay concerns NB13 (Neuroblastoma). In short, it runs like this: as §1
The subject of assay [2] is KYSE-140 (Esophageal Squamous Cell Carcinoma). The method, boiled down: as §1
The next assay relates to IM-9 (Non-Cancerous). The method, boiled down:
as §1

For assay [3], the system named is JHH-2 (Hepatocellular Carcinoma). In short, it runs like this: as §1
In the next assay the test system is EB2 (Burkitt's Lymphoma). In short, it runs like this:
as §1

The subject of assay [4] is CESS (Acute Myeloid Leukemia). In short, it runs like this:
as §1

In assay [5] the test system is LU-165 (Small Cell Lung Carcinoma). In short, it runs like this:
as §1

Assay [6] has as its system DU-4475 (Breast Carcinoma). In short, it runs like this: as §1
Assay [7] deals with G-402 (Other Solid Carcinomas). In short, it runs like this: as §1
Assay [8] relates to MHH-ES-1 (Ewing's Sarcoma). The method, boiled down:
as §1

A further assay relates to EW-7 (Ewing's Sarcoma). The method, boiled down: as §1
For assay [9], the system named is JVM-2 (B-Cell Non-Hodgkin's Lymphoma). The method, boiled down:
as §1

The next assay relates to WM1552C (Melanoma). In short, it runs like this: as §1
The subject of assay [10] is HCC1395 (Breast Carcinoma). The method, boiled down: as §1
Assay [11] relates to SK-HEP-1 (Hepatocellular Carcinoma). The method, boiled down: as §1
Assay [12] deals with SW620 (Colorectal Carcinoma). In short, it runs like this:
as §1

In a further assay the test system is A101D (Melanoma). The method, boiled down: as §1
The subject of a further assay is 5637 (Bladder Carcinoma). The method, boiled down:
as §1

Assay [13] concerns GA-10 (Burkitt's Lymphoma). In short, it runs like this: as §1

For `CCN(CCO)CCCOc1ccc2c(Nc3cc(CC(=O)Nc4cccc(F)c4)[nH]n3)ncnc2c1` [AZD2811] + O=C(c1cc(Cc2n[nH]c(=O)c3ccccc23)ccc1F)N1CCN(C(=O)C2CC2)CC1 [Olaparib] (first compound max 1 µM, 7x7, partner max 10 µM), the Bliss excess in assay [1] was -0.0311; in the assay with NB13 (Neuroblastoma), 0.0211; in assay [2], 0.0429; in the assay with IM-9 (Non-Cancerous) it was -0.0191; in assay [3] it was -0.0748; in the assay on EB2 (Burkitt's Lymphoma), 0.0141. In addition, the Bliss excess is 0.0591 in assay [4]; -0.0454 in [5]; 0.0213 in assay [6]; -0.0281 in assay [7]; -0.0214 in assay [8]; 0.0067 with EW-7 (Ewing's Sarcoma). Further, the Bliss excess in assay [9] is -0.125; in the assay on WM1552C (Melanoma), -0.027; in [10] it was -0.0546; in [11], -0.0121; in assay [12] it was 0.0318; with A101D (Melanoma) it was -0.0005. For the same compound, the Bliss excess was -0.0349 in the assay with 5637 (Bladder Carcinoma) and -0.0469 in assay [13].
On to `Cn1cnc2c(F)c(Nc3ccc(Br)cc3Cl)c(C(=O)NOCCO)cc21` [Selumetinib] + C=CCn1c(=O)c2cnc(Nc3ccc(N4CCN(C)CC4)cc3)nc2n1-c1cccc(C(C)(C)O)n1 [AZD1775] (first compound max 10 µM, partner max 1 µM), for which the Bliss excess is -0.0853 in assay [1]; -0.0591 in the assay on NB13 (Neuroblastoma); -0.0514 in [2]; -0.045 in the assay on IM-9 (Non-Cancerous); -0.0571 in [3]; -0.071 in the assay on EB2 (Burkitt's Lymphoma). Also, the Bliss excess was -0.0037 in assay [4]; -0.0589 in assay [5]; -0.0196 in [6]; -0.073 in assay [7]; -0.0733 in assay [8]; -0.0115 in the assay with EW-7 (Ewing's Sarcoma). The Bliss excess was -0.071 in [9]; -0.0674 in the assay with WM1552C (Melanoma); -0.0333 in [10]; 0.0127 in assay [11]; -0.0198 in assay [12]; -0.087 in the assay on A101D (Melanoma). Also, the figures for the Bliss excess (in the assay on 5637 (Bladder Carcinoma); in assay [13]) were -0.0306 and -0.0321, respectively.
With `Cc1c2c(nn1C)CSCc1cc(n(C)n1)CSc1cc(c3ccccc3c1)OCCCc1c(C(=O)O)n(C)c3c-2c(Cl)ccc13` [AZD5991] + C=CCn1c(=O)c2cnc(Nc3ccc(N4CCN(C)CC4)cc3)nc2n1-c1cccc(C(C)(C)O)n1 [AZD1775] (first compound max 1 µM, partner max 1 µM), the Bliss excess in assay [1] is 0.0072; in the assay with NB13 (Neuroblastoma), -0.0346; in assay [2], 0.0145; with IM-9 (Non-Cancerous), -0.054; in [3], -0.063; with EB2 (Burkitt's Lymphoma), -0.0969. The Bliss excess in assay [4] was -0.0098; in assay [5], 0.0112; in assay [6], -0.0582; in [7], 0.051; in assay [8] it was -0.0496; with EW-7 (Ewing's Sarcoma) it was 0.0015. Further, the Bliss excess in [9] is -0.0165; in the assay on WM1552C (Melanoma), -0.0651; in assay [10], -0.0172; in assay [11] it was -0.0366; in assay [12], -0.0272; in the assay on A101D (Melanoma), 0.0106. The Bliss excess was -0.0352 in the assay on 5637 (Bladder Carcinoma) and -0.053 in assay [13].
For `CN(CCO)CC[C@H](CSc1ccccc1)Nc1ccc(S(=O)(=O)NC(=O)c2ccc(N3CCC([C@@H](O)c4ccccc4-c4ccc(Cl)cc4)CC3)cc2)cc1S(=O)(=O)C(F)(F)F` [AZD4320] + CN(C)CCCOc1ccc(-c2ccc3ncc4c(c3c2)n(C2CCOCC2)c(=O)n4C)cn1 [AZD0156] (first compound max 1 µM, 7x7, partner max 1 µM), the Bliss excess in assay [1] was -0.025; in the assay with NB13 (Neuroblastoma) it was -0.0371; in assay [2] it was -0.0257; with IM-9 (Non-Cancerous) it was -0.0621; in assay [3] it was -0.0486; with EB2 (Burkitt's Lymphoma) it was -0.0028. The Bliss excess in [4] was -0.0814; in assay [5], -0.025; in [6], -0.0498; in assay [7], -0.0458; in [8], -0.0062; in the assay with EW-7 (Ewing's Sarcoma) it was 0.0524. Also, the Bliss excess in assay [9] is 0.0248; with WM1552C (Melanoma), -0.0282; in assay [10], -0.0269; in assay [11], 0.0146; in [12], -0.029; in the assay on A101D (Melanoma), -0.0298. The Bliss excess in the assay on 5637 (Bladder Carcinoma) is -0.0311; in assay [13], 0.0026.
Turning to `CC1(C)CCC(CN2CCN(c3ccc(C(=O)NS(=O)(=O)c4ccc(NCC5CCOCC5)c([N+](=O)[O-])c4)c(Oc4cnc5[nH]ccc5c4)c3)CC2)=C(c2ccc(Cl)cc2)C1` [Venetoclax] + C1CN(CCC1(C(=O)N[C@@H](CCO)C2=CC=C(C=C2)Cl)N)C3=NC=NC4=C3C=CN4 [Capivasertib] (first compound max 1 µM, 7x7, partner max 3 µM), the Bliss excess is -0.0751 in [1]; -0.0288 with NB13 (Neuroblastoma); -0.018 in [2]; 0.0533 with IM-9 (Non-Cancerous); 0.0139 in [3]; -0.0286 in the assay on EB2 (Burkitt's Lymphoma). In addition, the Bliss excess in [4] is -0.0707; in assay [5], -0.0268; in assay [6], 0.0239; in [7], -0.12; in assay [8], -0.01; in the assay with EW-7 (Ewing's Sarcoma) it was -0.0149. The Bliss excess in assay [9] was -0.0118; in the assay with WM1552C (Melanoma) it was -0.0834; in assay [10] it was -0.0806; in assay [11] it was -0.0525; in assay [12], -0.0511; with A101D (Melanoma), -0.0652. For the same compound, the Bliss excess in the assay on 5637 (Bladder Carcinoma) was -0.0513; in [13] it was -0.0614.
Consider `CC(=O)Nc1cccc(-n2c(=O)n(C3CC3)c(=O)c3c(Nc4ccc(I)cc4F)n(C)c(=O)c(C)c32)c1` [Trametinib] + Cc1nc(-c2cn3c(n2)-c2ccc(-c4cnn(C(C)(C)C(N)=O)c4)cc2OCC3)n(C(C)C)n1 [Taselisib] (first compound max 1 µM, 7x7, partner max 10 µM), for which the Bliss excess in assay [1] is 0.147; with NB13 (Neuroblastoma), 0.0088; in assay [2], -0.0046; in the assay on IM-9 (Non-Cancerous), 0.0008; in assay [3], -0.0221; with EB2 (Burkitt's Lymphoma), 0.0658. The Bliss excess is 0.219 in [4]; 0.0388 in assay [5]; 0.0664 in assay [6]; 0.0104 in [7]; 0.0141 in assay [8]; 0.0479 with EW-7 (Ewing's Sarcoma). Besides, the Bliss excess came to 0.0171 in assay [9]; 0.0903 in the assay with WM1552C (Melanoma); 0.0616 in assay [10]; 0.0781 in assay [11]; 0.0527 in [12]; 0.0168 with A101D (Melanoma). Also, the Bliss excess stood at 0.292 in the assay with 5637 (Bladder Carcinoma) and 0.0619 in assay [13].
In the case of `COc1nnc2ccc(N3CCC(c4ccc(OCCN5CCN(C)C(=O)[C@H]5C)cc4)CC3)nn12` [AZD5153] + CC1(C)CCC(CN2CCN(c3ccc(C(=O)NS(=O)(=O)c4ccc(NCC5CCOCC5)c([N+](=O)[O-])c4)c(Oc4cnc5[nH]ccc5c4)c3)CC2)=C(c2ccc(Cl)cc2)C1 [Venetoclax] (first compound max 1 µM, 7x7, partner max 1 µM), the Bliss excess is -0.0776 in [1]; -0.137 in the assay on NB13 (Neuroblastoma); -0.0597 in assay [2]; 0.0394 in the assay on IM-9 (Non-Cancerous); -0.0068 in assay [3]; -0.0677 in the assay on EB2 (Burkitt's Lymphoma). For the same compound, the Bliss excess in assay [4] is -0.0713; in assay [5], -0.0522; in assay [6], 0.0181; in assay [7], -0.0478; in assay [8], -0.046; in the assay on EW-7 (Ewing's Sarcoma), -0.0122. The Bliss excess was -0.0081 in assay [9]; -0.0691 in the assay with WM1552C (Melanoma); -0.0241 in assay [10]; -0.0153 in assay [11]; -0.0671 in [12]; -0.0731 in the assay on A101D (Melanoma). The results for the Bliss excess (in the assay on 5637 (Bladder Carcinoma); in assay [13]) were -0.0407 and -0.0497, respectively.
